Source: patent publication US20130023563A1, “AMIDINOANILINE DERIVATIVE” (AJINOMOTO CO., INC., priority 2010, published 2013)
Structures can show the parent of a compound that is named as a salt.

Tests used:
Format in all cases: biochemical
FXa = FXa (Homo sapiens, UniProt P00742); test: Measurement of inhibitory activity against activated factor X (chromogenic substrate S-2222); settings: 0.015 U/ml FXa, 0.2 mM S-2222, absorbance 405 nm; read-out: FXa (pIC50) (converted)
Procedure: Experimental Example 1 Measurement of Inhibitory Activity Against Activated Factor X Activity
(§1) Using a 96-well plate (#3396, Costar), 100 mM Tris-HC1 buffer (130 μL) containing 0.02% Tween 20, 0.1% PEG6000 and 0.2M NaCl was admixed with 0.015 U/ml FXa (10 μL) and a test compound (10 μL) for 10 min and a color developing substrate 0.2 mM S-2222 (50 μL) was added. Using a microplate reader Benchmark Plus (BIO-RAD), the reaction rate was measured from the time course changes at absorbance 405 nm. Using the reaction rate of the control as 100%, the negative logarithmic value of the concentration that can suppress the reaction rate of the control by 50% was taken as the pIC50 value.

[1] = biological target: activated factor IIa (thrombin) (Homo sapiens, UniProt P00734); test: Measurement of inhibitory activity against activated factor II (chromogenic substrate S-2238); settings: 0.125 U/ml thrombin, 0.1 mM S-2238, absorbance 405 nm; read-out: FIIa (pIC50) (converted)
Procedure: Experimental Example 2 Measurement of Inhibitory Activity Against Activated Factor II (FIIa, Thrombin)
as §1, with “mM Tris-HCl” for “mM Tris-HC1”, “with 0.125” for “with 0.015”, “U/ml activated factor IIa (thrombin)” for “U/ml FXa”, “substrate 0.1” for “substrate 0.2”, “mM S-2238” for “mM S-2222”

human plasma = test: Anti-blood coagulant activity, aPTT method, Sysmex Cs-2000i (Experimental Example 3-2); settings: negative logarithmic value of the concentration that prolongs aPTT of the control 2 times
Procedure: Experimental Example 3-2 Measurement of Anti-Blood Coagulant Activity
An aPTT measurement method using totally automatic blood coagulation time measuring apparatus Sysmex Cs-2000i was used. A 10 mg/ml DDVP solution (DDVP standard product, Wako) (8 μL) and a test compound solution (40 μL) were placed in a sample tube (MS-18, Japan Medical Science), human plasma (standard human plasma for blood coagulation test, GCH-100A, Sysmex) (360 μL) was added and the mixture was used as a test sample. The test sample (50 μL) was incubated at 37° C. for 1 min, data fi APTT (rabbit brain-derived cephalin, DADE Behiring) (50 μL) was added, and the mixture was further incubated at 37° C. for 2 min. To the sample solution was added 0.02M calcium chloride (50 μL), and the time until plasma coagulation was automatically measured.
As the anti-blood coagulant activity, the negative logarithmic value of the concentration that prolongs aPTT of the control 2 times is shown as paPTT2.

FXa, sequence (P00742 235-488 limits assumed): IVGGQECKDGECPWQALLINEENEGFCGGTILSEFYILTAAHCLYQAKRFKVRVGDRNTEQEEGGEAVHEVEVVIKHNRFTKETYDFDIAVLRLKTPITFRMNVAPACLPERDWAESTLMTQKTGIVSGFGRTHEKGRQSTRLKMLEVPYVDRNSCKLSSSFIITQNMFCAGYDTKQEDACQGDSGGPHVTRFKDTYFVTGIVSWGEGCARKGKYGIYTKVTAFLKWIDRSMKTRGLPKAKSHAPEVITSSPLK
FXa, sequence (P00742 41-179 partner limits assumed): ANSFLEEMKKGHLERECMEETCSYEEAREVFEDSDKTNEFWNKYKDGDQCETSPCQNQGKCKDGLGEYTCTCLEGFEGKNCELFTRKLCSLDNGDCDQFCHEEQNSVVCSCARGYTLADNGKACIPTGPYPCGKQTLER

SMILES | IC50 (FXa) [µM] | IC50 [1] [µM] | paPTT2 (human plasma)
CC(=N)N1CCC(Oc2ccc(OC(=O)[C@H](C)N(C)c3cccc(C(=N)N)c3)cc2)CC1 [compound of Ex. 6, 4-[(1-ethanimidoylpiperidin-4-yl)oxy]phenyl N-{3-[amino(imino)methyl]phenyl}-N-methyl-L-alaninate 2 trifluoroacetate] | 0.0145 | 33.1 | 6.81
CC(=N)N1CCC(Oc2ccc(OC(=O)[C@@H](C)N(C)c3cccc(C(=N)N)c3)cc2)CC1 [compound of Ex. 7, 4-[(1-ethanimidoylpiperidin-4-yl)oxy]phenyl N-{3-[amino(imino)methyl]phenyl}-N-methyl-D-alaninate 2 trifluoroacetate] | 0.0214 | 33.1 | 6.85
N=C(N)c1cccc(N2C[C@H](O)C[C@H]2C(=O)Oc2ccc(C(=N)N3CCCC3)cc2)c1 [compound of Ex. 15, 4-[imino(pyrrolidin-1-yl)methyl]phenyl (4R)-1-[(3-[amino(imino)methyl]phenyl]-4-hydroxy-L-prolinate 2 trifluoroacetate] | 0.224 | 28.2 | 5.68
N=C(N)c1cccc(N2CCCC[C@@H]2C(=O)Oc2ccc(C(=N)N3CCCC3)cc2Cl)c1 [compound of Ex. 20, 2-chloro-4-[imino(pyrrolidin-1-yl)methyl]phenyl (2R)-1-{3-[amino(imino)methyl]phenyl}piperidine-2-carboxylate 2 trifluoroacetate] | 0.00646 | 1.2 | 6.93
N=C(N)c1cccc(N2CCCC[C@@H]2C(=O)Oc2ccc(C(=N)N3CCCC3)cc2F)c1 [compound of Ex. 21, 2-fluoro-4-[imino(pyrrolidin-1-yl)methyl]phenyl (2R)-1-{3-[amino(imino)methyl]phenyl}piperidine-2-carboxylate 2 trifluoroacetate] | 0.00513 | 1.91 | 6.94
CC(C)[C@@H](C(=O)Oc1ccc(C(=N)N2CCCC2)cc1)N(C)c1cccc(C(=N)N)c1 [compound of Ex. 28, 4-[imino(pyrrolidin-1-yl)methyl]phenyl N-{3-[amino(imino)methyl]phenyl}-N-methyl-L-valinate 2 trifluoroacetate] | 0.0309 | 14.1 | 6.55
CC(C)C[C@@H](C(=O)Oc1ccc(C(=N)N2CCCC2)cc1)N(C)c1cccc(C(=N)N)c1 [compound of Ex. 29, 4-[imino(pyrrolidin-1-yl)methyl]phenyl N-{3-[amino(imino)methyl]phenyl}-N-methyl-L-leucinate 2 trifluoroacetate] | 0.0112 | 25.7 | 6.72
CCC(C)[C@@H](C(=O)Oc1ccc(C(=N)N2CCCC2)cc1)N(C)c1cccc(C(=N)N)c1 (stereo partly drawn) [compound of Ex. 33, 4-[imino(pyrrolidin-1-yl)methyl]phenyl N-{3-[amino(imino)methyl]phenyl}-N-methyl-L-isoleucinate 2 trifluoroacetate] | 0.00813 | 13.2 | 6.80
COc1cc(C(=N)N2CCCC2)ccc1OC(=O)[C@H](C)N(C)c1cccc(C(=N)N)c1 [compound of Ex. 36, 4-[imino(pyrrolidin-1-yl)methyl]-2-methoxyphenyl N-{3-[amino(imino)methyl]phenyl}-N-methyl-L-alaninate 2 trifluoroacetate] | 0.0316 | 7.08 | 6.67
CCC(C)[C@H](C(=O)Oc1ccc(C(=N)N2CCCC2)cc1F)N(C)c1cccc(C(=N)N)c1 (stereo partly drawn) [compound of Ex. 39, 2-fluoro-4-[imino(pyrrolidin-1-yl)methyl]phenyl N-{3-[amino(imino)methyl]phenyl}-N-methyl-L-isoleucinate 2 trifluoroacetate] | 0.0151 | 25.7 | 6.50
CC(=N)N1CCC(Oc2ccc(OC(=O)[C@@H](COC(C)(C)C)N(C)c3cccc(C(=N)N)c3)cc2)CC1 [compound of Ex. 40, 4-[(1-ethanimidoylpiperidin-4-yl)oxy]phenyl N-{3-[amino(imino)methyl]phenyl}-O-(tert-butyl)-N-methyl-L-serinate 2 trifluoroacetate] | 0.00447 | 34.7 | 6.53
CCCC[C@H](C(=O)Oc1ccc(OC2CCN(C(C)=N)CC2)cc1)N(C)c1cccc(C(=N)N)c1 [compound of Ex. 41, 4-[(1-ethanimidoylpiperidin-4-yl)oxy]phenyl N-{3-[amino(imino)methyl]phenyl}-N-methyl-L-norleucinate 2 trifluoroacetate] | 0.00295 | 2.19 | 6.53
CC(=N)N1CCC(Oc2ccc(OC(=O)[C@H](CO)N(C)c3cccc(C(=N)N)c3)cc2)CC1 [compound of Ex. 42, 4-[(1-ethanimidoylpiperidin-4-yl)oxy]phenyl N-{3-[amino(imino)methyl]phenyl}-N-methyl-L-serinate 2 trifluoroacetate] | 0.0138 | 51.3 | 6.64

Further lines, with some results ahead:

IC50 (FXa) [µM] | IC50 [1] [µM] | SMILES | paPTT2 (human plasma)
0.00309 | 0.977 | CCCC[C@@H](C(=O)Oc1ccc(C(=N)N2CCCC2)cc1OC)N(C)c1cccc(C(=N)N)c1 [compound of Ex. 43, 4-[imino(pyrrolidin-1-yl)methyl]-2-methoxyphenyl N-{3-[amino(imino)methyl]phenyl}-N-methyl-L-norleucinate 2 trifluoroacetate] | 6.90
0.00316 | 1.74 | CCC[C@H](C(=O)Oc1ccc(OC2CCN(C(C)=N)CC2)cc1)N(C)c1cccc(C(=N)N)c1 [compound of Ex. 44, 4-[(1-ethanimidoylpiperidin-4-yl)oxy]phenyl N-{3-[amino(imino)methyl]phenyl}-N-methyl-L-norvalinate 2 trifluoroacetate] | 6.87
0.00302 | 2.57 | CCCC[C@@H](C(=O)Oc1ccc(C(=N)N2CCCC2)cc1C)N(C)c1cccc(C(=N)N)c1 [compound of Ex. 45, 4-[imino(pyrrolidin-1-yl)methyl]-2-methylphenyl N-{3-[amino(imino)methyl]phenyl}-N-methyl-L-norleucinate 2 trifluoroacetate] | 6.71
0.00295 | 15.5 | CN(c1cccc(C(=N)N)c1)[C@@H](Cc1ccccc1)C(=O)Oc1ccc(C(=N)N2CCCC2)cc1 [compound of Ex. 46, 4-[imino(pyrrolidin-1-yl)methyl]phenyl N-{3-[amino(imino)methyl]phenyl}-N-methyl-L-phenylalaninate 2 trifluoroacetate] | 6.87
0.00813 | 22.4 | CCC(C(=O)Oc1ccc(C(=N)N2CCCC2)cc1)N(C)c1cccc(C(=N)N)c1 (centres unmarked) [compound of Ex. 47, 4-[imino(pyrrolidin-1-yl)methyl]phenyl 2-[{3-[amino(imino)methyl]phenyl}(methyl)amino]butanoate 2 trifluoroacetate] | 6.82
0.0055 | 3.63 | N=C(N)c1cccc(N2CCCC[C@@H]2C(=O)Oc2ccc(C(=N)N3CCCC3)nc2)c1 [compound of Ex. 50, 6-[imino(pyrrolidin-1-yl)methyl]pyridin-3-yl (2R)-1-{3-[amino(imino)methyl]phenyl}piperidine-2-carboxylate 2 trifluoroacetate] | 6.66
0.0141 | 2.24 | COC(=O)c1cc(C(=N)N2CCCC2)ccc1OC(=O)[C@H]1CCCCN1c1cccc(C(=N)N)c1 [compound of Ex. 51, 4-[imino(pyrrolidin-1-yl)methyl]-2-(methoxycarbonyl)phenyl (2R)-1-{3-[amino(imino)methyl]phenyl}piperidine-2-carboxylate 2 trifluoroacetate] | 6.79
0.00537 | 6.92 | CC(=N)N1CCC(Oc2ccc(OC(=O)c3cc(C(F)(F)F)nn3-c3cccc(C(=N)N)c3)cc2)CC1 [compound of Ex. 57, 4-[(1-ethanimidoylpiperidin-4-yl)oxy]phenyl 1-{3-[amino(imino)methyl]phenyl}-3-(trifluoromethyl)-1H-pyrazole-5-carboxylate 2 trifluoroacetate] | 
